{"source": "patent US20250144187A1", "about": "“COMBINATION OF HYDROLASES AND ANTI-MICROORGANISM DRUGS AND USES THEREOF” (CENTRE FOR EYE AND VISION RESEARCH LIMITED, priority 2023, published 2025)", "key": {"MRSA [1]": {"tested_on": "MRSA", "experiment": "ATP, NAD+/NADH and pyruvate levels, tedizolid phosphate/lysozyme", "type": "cell-based, Staphylococcus aureus", "details": "combination therapy for 1 hour", "procedure": "13) ATP, NAD^+/NADH and pyruvate levels. According to the described method [Liu. Y et al., Adv. Sci. 7, 1902227(2020)], mid-log-phase MRSA with the OD600 of 0.4 to 0.6 was treated with lysozyme, tedizolid phosphate or their combination at different concentrations. Those without any treatment served as control group. After 1 hour incubation at 37° C. all bacteria we collected and then washed by cold PBS for 3 times. […] Then, 75 μl of each supernatant was incubated 25 μl of reaction I, followed by continuous incubation with 125 μl of reaction II. By recording the absorbance at 520 mu, the pyruvate level in each sample was figured out according to the standard formula. The intensity in control group was defined as 100% and others were normalized.\nThen, 20 si of each supernatant was added white 96-well plate pre-reactivated by 100 μl of ATP test solution (Beyotime Biotechnology, China), followed by luminometer measurement [Liu, Y et al., Adv. Sci 7, 1902227 (2020)]. To analyze the intracellular NAD^+ and NADH levels [Xue, C et al., Front. Pharmacol. 12, 600296 (2021)], each lysis supernatant was divided into two tubes. One tube was heated at 60° C. for 30 minutes in PCR machine to decompose NAD^+ if had. Then, this tube was further centrifuged at 18,000 g at 4° C. for 20 minutes to collect the supernatant. After that, 20 μl of supernatant from heated or unheated group was added white 96-well plate pre-reactivated by 90 μl/well of alcohol dehydrogenase solution (Beyotime Biotechnology, China) for 10 minutes incubation at 37° C. in the prevention of light, Next, 10 μl of staining solution (Beyotime Biotechnology, China) was added to react with product in previous reaction. After 30 minutes at 37° C. in the prevention of light, orange formazan was observed and then the absorbance at 450 nm was recorded. Intensities of those […] heat treatment indicated the levels of NADH+NAD^+ and NADH itself, respectively. Finally, according to the standard formula, the intracellular levels of NAD^+, NADH and their ratio were figured out. All results were expressed as average±SD. […]"}, "MRSA [2]": {"tested_on": "MRSA", "experiment": "Time-killing curves, cefdinir/lysozyme", "type": "cell-based, Staphylococcus aureus", "details": "0.5 mg/ml lysozyme + 0.5 μg/ml cefdinir, after 16 hours; reduced from the level of 10^10", "procedure": "3) Time-killing curves. According to standard method [Thappeta K R V et al., ACS Infect Dis 6, 1228-1237 (2020)], over-night cultured MRSA was diluted and aliquoted into new sterile 50 ml tubes at 1:1000 ratio. Then, the bacterial suspension was cultured in LB medium containing 0.5 or 2.0 μg/ml cefdinir, 0.5 mg/ml lysozyme or their combination at 37° C. with shaking at 250 rpm. Bacterial suspension without any drugs served as control group. To measure their kinetic time-killing curves, twenty micro liters of each culture was extracted at time intervals of 0, 2, 4, 6, 9 and 16 h for measurement of the OD600 and colony-forming units. Ten micro liters of each dilution was spotted on the LB-agar plates and incubated at 37° C. for 24 hours prior to enumeration. All assays were performed in triplicate."}, "MRSA-infected skin wound": {"tested_on": "MRSA-infected skin wound", "experiment": "Rat skin infection model, cefdinir/lysozyme", "type": "in vivo, Sprague Dawley (SD) rats", "details": "combination therapy vs control or mono-therapy groups", "procedure": "16) Rat skin Infection model. […] Others were infected by about 5×10^11 CFU of mid-log phase MRSA from our own collection. Briefly, all rats were firstly pre-depilated by using 10% Na2S to get an uncovered back area of 4 cm×4 cm prior to 24 hours for the anesthetization on rats. Then, the skin of anesthetized rat was removed until fascial region under sterile condition, followed by bacterial infection by spraying 5×10^11 CFU of MRSA suspension on wound (3 cm×3 cm). To collect these bacterial suspensions, mid-log phase MRSA would be collected by centrifugation at 4500 g for 15 minutes washed with PBS for 3 limes and re-suspended in cold PBS to get bacterial suspension with an initial density of about 4.0×10^11 CFU/ml according to pre-experiment. Next, 1.25 ml of bacterial suspensions was inoculated into wound, Normal saline was used to replace bacterial suspension in uninfected group. After 1 hour infection, wound of infected rat was covered by sterile medical gauze. All sterile medical gauzes were 0.2 g/cm^2, which were further covered by two layers of sterile gauzes and fixed by sterile tapes. After that, rats were monitored until they were fully awake, followed by return to their cages. After 24 hours infection, these sterile medical gauzes were replaced with new sterile medical gauzes. […] About 4-μm sections was analyzed by using the hematoxylin and eosin (H-E) staining. […]"}}}
{"smiles": "Cn1nnc(-c2ccc(-c3ccc(N4C[C@H](COP(=O)(O)O)OC4=O)cc3F)cn2)n1", "note": "[tedizolid phosphate, Tedizolid Phosphate]", "values": [{"measurement": "decrease in the level of pyruvate", "setting": "MRSA [1]", "result": "> 40", "unit": "%"}, {"measurement": "level of ATP", "setting": "MRSA [1]", "result": "higher levels of ATP"}, {"measurement": "ratio of NAD+/NADH", "setting": "MRSA [1]; increased from 8.84±1.89", "result": "18.43±4.42"}]}
{"smiles": "C=CC1=C(C(=O)O)N2C(=O)[C@@H](NC(=O)/C(=N\\O)c3csc(N)n3)[C@H]2SC1", "note": "[cefdinir, Cefdinir]", "values": [{"measurement": "bacterial load", "setting": "MRSA [2]", "result": "10^7 CFU/ml"}, {"measurement": "decrease in the level of IL-6 in wounds", "setting": "MRSA-infected skin wound", "result": "> 16", "unit": "%"}, {"measurement": "decrease in the level of ROS in wounds", "setting": "MRSA-infected skin wound", "result": "more than 36%"}]}
